Assays:
R28 cells = assay: Apoptosis assay, Annexin V-FITC/PI flow cytometry, R28 cells; type: cell-based, rat
Text: (A) Representative flow cytometer images of R28 cells with different treatments of PQ1 and/or CoCl2. The y-axis quantifies the number of cells stained with propidium iodine and the x-axis quantifies number of cells stained with Annexin V-FITC. (B,C) Histogram of % apoptotic cells after treatment with CoCl2 and PQ1. The percentage of apoptotic cells represents cells that are Annexin V-FITC positive and both propidium iodide and Annexin V-FITC positive after different time periods.
Apoptosis assay. Approximately 70% confluent R28Cells in 25 cm2 flasks were treated with PQ1 at 10 μM for 40 min followed by treatment with 500 μM CoCl2 for different time periods to induce apoptosis. After this, cells were harvested and stained with Annexin V-FITC and propidium iodide (PI) according to the manufacturer's protocol (BioVision # K101-100). Annexin V-FITC/PI binding was analyzed by flow cytometry using a BD FACSCalibur system and data was analyzed using the CellQuest software.
The later phase of apoptosis is assessed by measuring the DNA labeling with the PI, an indicator of the cell membrane permeabilization.

PKCγ = assay: Expression of PKCγ; type: cell-based; settings: 100, 200, 300 and 500 nM, 24 hours
Protocol: However, PQ3 has an opposite effect on mammary cancer cell lines. […] A summary of PQ-mediated GJIC activity and colony growth in breast and colon cancer cells is presented in Tables 1, 2, and 3, as well as FIGS. 10-13. In FIG. 10, SW620 cells were dosed for 24 hours with PQ1 at 100, 200, 300, and 500 nM. The gap junction activity was measured as a percent of control, as previously described. It was seen that all concentrations on PQ1 increased the gap junction activity in SW620 colon cancer cells as compared to the control. In FIG. 11, the effect of PQ1 on the expression of PKCγ was studied at concentrations of 100, 200, 300 and 500 nM PQ1 for 24 hours. It is seen in FIG. 11 that PQ1 has no effect on the expression of PKCγ at the levels tested. In FIGS. 12 and 13, the effect of PQ1 on the colony growth of SW620 colon cancer cells was measured with 1-100 nM PQ1 (FIG. 12) and 10 uM PQ1 (FIG. 13).

T47D cells [1] = assay: Electron microscopy of PQ1-treated cells; type: cell-based, human; settings: PQ1 treatment
[2] = tested on: transformed human mammary epithelial cells (HMEC); assay: Cell proliferation, HMEC; type: cell-based
Protocol: There was no effect seen on the cell proliferation in transformed human mammary epithelial cells (HMEC, data not shown).
MTT assay: This assay is done to measure cell proliferation and viability. Yellow MTT (3-(4,5-Dimethylthiazol-2-yl)-2,5-diphenyltetrazolium bromide, a tetrazole) is reduced to purple crystals, formazan in the mitochondria of living cells. A solubilization solution is added to dissolve the insoluble purple formazan product into a colored solution. The absorbance of this colored solution can be measured by a spectrophotometer. T47 D cells (20,000) were grown in 96-well plate and dosed with 10, 100, 200, 500 nM of PQ1 compound in 100 μl of complete media for 24 hours. MTT (20 μl) was added to the cells and purple formazan crystals were observed after 90 minutes. A solubilization solution (0.35 N HCl) was added to dissolve the formazan and the absorbance was measured at 595 nm wavelength with a background wavelength 690 nm by a spectrophotometer.

MEC = assay: Soft agar colony growth, MEC; type: cell-based, human; settings: 100 nM
Protocol: Various oncogenes (e.g. ras, raf, neu, src, mos) down-regulate GJIC while several tumor suppressor genes can up-regulate GJIC. […] Cells were grown in soft agar to assess their capacity for anchorage-independent growth, which is a key feature of cell transformation due to the importance of cell-cell and cell-matrix based tumor suppression. MEC and T47D cells were treated with 10, 100, 1000, and 10000 nM PQ1 for 7 days. A graphical presentation of three experiment results is presented in log scale of PQ1 concentration. […] A 100 nM PQ1 inhibits 66% of colony growth compared to controls, without PQ1 treatment or 100 nM succinic acid.
Colony Growth Using Soft Agar. Cells were treated with 0, 10, 100, 200 and 500 nM PQ1 for 7 days. Base agar plates were prepared containing 0.8% agar and 0.4% agar in Ham's F12. Cells (5×10^4 cells/33 mm^2 well) were suspended in 100 μl of Ham's F12 with 0.4% agar and plated. These plates were maintained at 37° C. for 7 days and examined for the presence of colonies. Individual colonies of 50 μm or greater were examined.

T47D cells [3] = assay: Gap junction activity (GJIC), flow cytometry of dye coupling, T47D cells; type: cell-based, human
Protocol: FIG. 4(A) MDA-MB-453 and (B) T47D cells were treated with low (500 nM) and high (10 μM) concentrations of PQs for 24 hours. Monolayers of acceptor cell population were grown on 25-cm flasks in the presence of Vibrant DiD. Vybrant DiD in acceptor cells is not able to pass through the gap junctions because of its hydrophobic property. Single cell suspensions of donor treated cells were prepared, labeled with 0.05 μg/ml calcein-AM, incubated at 37 C for 5 minutes. Quantification of dye coupling between the donor and acceptor cells was assessed by dual-excitation flow cytometry. […] Cells treated with 10 μM PQ3 have approximately 40-50% decrease in gap junction activity compared control or DMSO.

MDA-MB-231 = assay: Gap junction intercellular communication, MDA-MB-231 cells; type: cell-based, human; settings: Table 1

Row | Compound | protection from CoCl2-induced apoptosis (R28 cells; 10 μM PQ1 40 min pre-treatment, then CoCl2 500 μM) | damage to the cells (R28 cells; 10 μM PQ1 only, 36 h) | expression of PKCγ (PKCγ) | mitochondria by electron microscopy (T47D cells [1]) | cell proliferation [2] | colony growth (MEC) | increase in GJIC (T47D cells [3]; FIG. 4, 24 hours) | effect on gap junction intercellular communication (T47D cells [3]; Table 1, 500 nM) | effect on gap junction intercellular communication (MDA-MB-231)
1 | COc1cc(NCCCN)c2nccc(C)c2c1Oc1cccc(C(F)(F)F)c1.O=C(O)CCC(=O)O [PQ1, 6-Methoxy-8-[(3-aminopropyl)amino]-4-methyl-5-(3-trifluoromethylphenyloxy) quinoline succinic acid] | protected the cells significantly | did not cause any damage | no effect | Mitochondrial damage | no effect | no effect | 20-50% | Increase | –
2 | COc1cc(N)c2nccc(C)c2c1Oc1cccc(C(F)(F)F)c1 [PQ3, 8-Amino-6-methoxy-4-methyl-5-(3-trifluoromethylphenyloxy)quinoline] | – | – | – | – | – | – | – | – | No effect

From US8809368B2, “Compounds affecting gap junction activity” (Kansas State University Research Foundation, priority 2006, dated 2014)
